Columns and labels:
[1] = tested on: NCI-H1666 (BRAF G466V) cells; assay: Cellular phospho-ERK inhibition assay in NCI-H1666 cells; assay type: cell-based; conditions: Homo sapiens, 1 hour treatment, read-out: IC50 NCI-H1666 pERK
Description: (§1) The compounds of Example 13, Example 14 and Example 126 were evaluated in a phospho-ERK assay in two mutant BRAF Class III cell lines: NCI-H1666 (BRAF^G466V) and WM3629 cells (BRAF^D594G/NRAS^G12D). NCI-H1666 cells were obtained from the American Type Culture Collection (ATCC, Rockville, MD) and WM3629 cells were obtained from Rockland Immunochemicals (Limerick, PA). Cells were maintained in RPMI growth medium containing 10% FBS.
Cells were harvested according to standard protocols, counted, and plated onto flat-bottom, 96-well tissue culture plates (Costar #3599) at 2.5×10^4 cells/well in 100 μL/well of growth medium containing 10% FBS. After an overnight incubation at 37° C. with 5% CO2 cells were treated for 1 hour at 37° C., 5% CO2 with inhibitors prepared as a 9-point, 1:3.33 fold dilution series with final compound concentrations ranging from 66 pM-10 μM and a constant DMSO concentration of 0.25%. Control wells contained either 0.25% DMSO alone (uninhibited control) or 10 μM binimetinib (complete inhibition control). The levels of phosphorylated ERK were determined using an In Cell Western protocol: following compound incubation, growth medium was discarded, and cells were fixed with 0.4% formaldehyde in PBS for 20 minutes at room temperature. Cells were permeabilized with 100% methanol for 10 minutes at room temperature. Plates were washed with PBS containing 0.05% Tween-20 and blocked for 1 hour at room temperature with LI-COR Blocking Buffer (LI-COR Biosciences; Cat. #927-40000). Plates were then incubated for 2 hours at room temperature with 50 μL of a 1:400 dilution of anti-phospho-ERK1/2 (Thr202/Tyr204) (Cell Signaling; Cat. #9101) and a 1:1000 dilution of anti-GAPDH (Millipore; Cat. #MAB374) in LI-COR blocking buffer containing 0.05% Tween-20. […] Plates were analyzed by reading on an Odyssey CLx infrared scanner. […]
[formula] • Where: • Xmax d Average Uninhibited Controls • Xmin Average Complete Inhibition Controls • IC50 values were then calculated using a 4-parameter fit in XLfit software and are shown in Table A2.

[2] = tested on: WM3629 cells (BRAF D594G/NRAS G12D); assay: Proliferation assay (CellTiter-Glo) in WM3629 cells; assay type: cell-based; conditions: 3-5 day incubation
Description: as §1, with “proliferation” for “phospho-ERK”
Cells were harvested according to standard protocols, counted, and plated onto flat-bottom, 96-well tissue culture plates (Costar #3599) at 2000-5000 cells/well in 100 μL/well of growth medium containing 10% FBS. Cells were incubated at 37° C. with 5% CO2 overnight then treated with inhibitors prepared as a 9-point, 1:3.33 fold dilution series with final compound concentrations ranging from 66 pM-10 μM and a constant DMSO concentration of 0.25%. Control wells contained 0.25% DMSO alone. After a 3-5 day incubation at 37° C., 5% CO2, cell viability was determined by adding 100 μL CellTiter-Glo® Reagent (Promega) to each well and incubated for 15 minutes at room temperature. “Day 0” controls were determined by performing CellTiter-Glo© assay on DMSO control wells at the time of compound treatment (“Day 0” control=0 POC). Luminescence was measured on a Cytation 5 plate reader (BioTek) and values were converted to POC using the following equation:
[formula] • Where: • Xmax Average DMSO Controls • Xmin Average “Day 0” DMSO Controls • IC50 values were calculated using a 4-parameter fit in XLfit software and are shown in Table A2.

[3] = PK (free brain-to-free plasma ratio) (mouse); assay type: in vivo; conditions: male CD-1 mice, oral gavage 10 mg/kg, unbound brain-to-unbound plasma, read-out: B/P ratio (free)
Description: The ability of representative compounds to penetrate the BBB in mice was determined by evaluating the unbound brain-to-unbound plasma (also referred to as free brain-to-free plasma) concentration ratio in male CD-1 mice.
Brain compound levels were generated from oral mouse PK dosing with typical sampling times of 2, 4, 8, 12 and 24 hours post oral gavage dosing at 10 mg/kg. Brain samples were stored at −20±5° C. prior to analysis. Concentrations of test compound in mouse brain homogenate were determined by liquid chromatography tandem mass spectrometry (LC-MS/MS) following protein precipitation with acetonitrile. A 12-point calibration curve, ranging from 0.5 to 10,000 ng/mL, was prepared in duplicate. A solution of 400 μg/mL of test compound in dimethyl sulfoxide (DMSO) was serially diluted (3-fold) in 100% DMSO, and then 2.5 μL of each standard solution was added to 100 μL of naïve male CD-1 mice brain homogenate. To mimic the extraction in the standard curve, 2.5 μL of DMSO was added to all test samples. Both calibration and test brain homogenate samples were spiked with 10 μL of an IS (1 μg/mL of a structural analog). Brain homogenate was generated by adding 0.75 mL of 4:1 water:MeOH to each brain sample followed by homogenization for 1 minute with bead beater tubes a 6 m/s using an MP Fast Prep-24®. Proteins were precipitated from 100 μL of brain homogenate sample by the addition of 300 μL of acetonitrile. Samples were vortex-mixed for 5 minutes and spun in an Allegra X-12R centrifuge (Beckman Coulter, Fullerton, CA; SX4750A rotor) for 15 min at approximately 1,500×g at 4° C. A 100 μL aliquot of each supernatant was transferred via a 550 μL Personal Pipettor (Apricot Designs, Monrovia, CA) to 96-well plates and diluted 1:1 with HPLC grade water. The resulting plates were sealed with aluminum for LC-MS/MS analysis.
Brain-to-plasma ratios were calculated using the concentration of compound measured in the brain divided by the concentration of compound measured in the plasma. Brain-to-plasma ratios were always generated from a single animal and time point. Free brain-to-free plasma ratios were calculated by multiplying the brain-to-plasma ratio by the in vitro brain homogenate free fraction divided by the in vitro plasma free fraction using the following equation: (B/P)*(Bfu/Pfu). Table C provides the free brain-to-free plasma ratios of compounds disclosed herein.

IC50 [1] [nM]	Kp [3]	SMILES	IC50 [2] [nM]
15	0.75 to 0.93	Cn1cnc2ccc(Nc3c(F)ccc(NS(=O)(=O)N4CC5CC4C5)c3Cl)c(F)c2c1=O [Example 13, N-(2-chloro-4-fluoro-3-((5-fluoro-3-methyl-4-oxo-3,4-dihydroquinazolin-6-yl)amino)phenyl)-2-azabicyclo[2.1.1]hexane-2-sulfonamide]	> 10000
7.1	0.13 to 0.39	Cn1cnc2ccc(Nc3c(F)ccc(NS(=O)(=O)N4CC[C@@H](F)C4)c3Cl)c(F)c2c1=O [Example 14, (R)-N-(2-chloro-4-fluoro-3-((5-fluoro-3-methyl-4-oxo-3,4-dihydroquinazolin-6-yl)amino)phenyl)-3-fluoropyrrolidine-1-sulfonamide]	> 10000

Source: patent US12303509B2, “Compounds for the treatment of BRAF-associated diseases and disorders” (Pfizer Inc., priority 2020, dated 2025)
